The subject of data set [1] is ear-swelling in mice in response to antigenic challenge. Briefly: dermal delayed hypersensitivity test (oxazolone), inhibition of ear-swelling in mice. The data set is classed as in vivo. The following applies: oxazolone sensitized, 150 mg/kg b.w. i.p. at challenge, ear thickness 24 hours after challenge, compared to control animals. The procedure: Immunosuppression of the compound of Example 25 was compared with cyclophosphamide, a known immunosuppressant drug, as an inhibitor of ear-swelling in mice in response to antigenic challenge in a dermal delayed hypersensitivity test at 150 mg/kg body weight.
The test was performed as is described e.g. by G. L. Asherton and W. Ptak in Immunology 15, 405 (1968). Mice were immunized by applying on the abdomen skin 0.1 ml of a 3% oxazolone solution. 7 days after sensitization, they were challenged by painting the same solution on the ear skin. Part of the mice were simultaneously administered i.p. the immunosuppressant drug of Example 25 or cyclophosphamide. The remaining animals served as controls. 24 hours after challenge, the increase in ear thickness was measured. Immunosuppressant activity was expressed in % of inhibition of ear-swelling in drug-administered mice compared to control animals.

The nature of data set [2]: pharmacological studies (immunosuppressant activity, adverse effects). Format: in vivo. To be noted: in words.

As to `O=P1(N(CCCl)CCCl)NCCCO1` (stereo not shown) [Cyclophosphamide, reference compound], in data set [1], the “% inhib. of ear-swelling” value is on record as 73%.
With `Cn1cnc2c1c(=O)n(Cn1c(=O)c3c(ncn3C)n(C)c1=O)c(=O)n2C` [Example 25, di(3,7-dimethylxanthin-1-yl)methane], the “% inhib. of ear-swelling” value in data set [1] is 55%. In addition, in data set [2], the immunosuppressant activity entry is on record as “has an immunosuppressant activity” and the toxic adverse effect entry was “no toxic adverse effect”.

Source of the values: patent publication US4450163A, “Process for the preparation of 1,3,7-trialkyl xanthines and di(3,7-dimethylxanthin-1-yl)methane as a medicament” (Societe d'Assistance Technique pour Produits Nestle S.A., priority 1979, dated 1984).
